{
  "source": "patent EP4617278A1",
  "about": "“NUCLEOTIDE ANALOG, AND COMPOSITION AND USE THEREOF” (priority 2022, dated 2024)",
  "data": [
    {"tested_on": "SARS-CoV-2 replicon", "type": "cell-based", "conditions": "read-out: SARS-CoV-2 Replicon (Huh-7cell) EC50", "units": {"EC50": "µM"}, "values": [
      {"smiles": "CCC(CC)COC(=O)C1(N[P@](=O)(OC[C@H]2O[C@@](C#N)(c3ccc4c(N)ncnn34)[C@H](OC(=O)C(C)C)[C@@H]2OC(=O)C(C)C)Oc2ccccc2)CCC1", "note": "[Compound 40b, (2R,3R,4R,5R)-2-(4-aminopyrrolo[2,1-f][1,2,4]triazin-7-yl)-2-cyano-5-((((S)-((1-((2-ethylbutoxy)carbonyl)cyclobutyl)amino)(phenoxy)phosphoryl)oxy)methyl)tetrahydrofura n-3,4-diyl bis(2-methylpropionate)]", "EC50": "0.05 to 0.5"},
      {"smiles": "CCCCCOC(=O)C[C@H](N[P@](=O)(OC[C@H]1O[C@@](C#N)(c2ccc3c(N)ncnn23)[C@H](OC(=O)C(C)C)[C@@H]1OC(=O)C(C)C)Oc1ccc(C(C)(C)C)cc1)C(=O)OCCCCC", "note": "[Compound 39b, (2R,3R,4R,5R)-2-(4-aminopyrrolo[2,1-f][1,2,4]triazin-7-yl)-2-cyano-5-((((S)-(((S)-1,4-dipentyloxy-1,4-dioxobutan-2-yl)amino)(4-tert-butylphenoxy)phosphoryl)oxy)methyl)tetrahydrofuran-3,4-diyl bis(2-methylpropionate)]", "EC50": "0.01 to 0.05"},
      {"smiles": "CCC(CC)COC(=O)[C@H](Cc1ccccc1)N[P@](=O)(OCOC(=O)OC(C)C)OC[C@H]1O[C@@](C#N)(c2ccc3c(N)ncnn23)[C@H](OC(=O)C(C)C)[C@@H]1OC(=O)C(C)C", "note": "[Compound 31a, (2R,3R,4R,5R)-2-(4-aminopyrrolo[2,1-f][1,2,4]triazin-7-yl)-2-cyano-5-((((R)-(((S)-1-(2-ethylbutoxy)-1-oxo-3-phenylpropan-2-yl)amino)(((isopropoxycarbonyl)oxy)methoxy)phosphoryl)oxy)methyl)tetrahydrofuran-3,4-diyl bis(2-methylpropionate)]", "EC50": "0.01 to 0.05"}
    ]}
  ]
}
